Assay results as given in ChEMBL document CHEMBL4196076, “An access to a library of novel triterpene derivatives with a promising pharmacological potential by Ugi and Passerini multicomponent reactions” (Eur J Med Chem, 2018).

Experiments:
[1] = system: HT-29; experiment: Cytotoxicity against human HT-29 cells after 96 hrs by sulforhodamine-B assay; type: functional, cell-based; details: HT-29, 96 h
[2] = system: MCF7; experiment: Cytotoxicity against human MCF7 cells after 96 hrs by sulforhodamine-B assay; type: functional, cell-based; details: MCF7, 96 h
[3] = system: 518A2; experiment: Cytotoxicity against human 518A2 cells after 96 hrs by sulforhodamine-B assay; type: functional, cell-based; details: 518A2, 96 h
[4] = system: A2780; experiment: Cytotoxicity against human A2780 cells after 96 hrs by sulforhodamine-B assay; type: functional, cell-based; details: A2780, 96 h
[5] = system: A549; experiment: Cytotoxicity against human A549 cells after 96 hrs by sulforhodamine-B assay; type: functional, cell-based; details: A549, 96 h
[6] = system: FaDu; experiment: Cytotoxicity against human FADU cells after 96 hrs by sulforhodamine-B assay; type: functional, cell-based
[7] = system: NIH3T3; experiment: Cytotoxicity against mouse NIH/3T3 cells after 96 hrs by sulforhodamine-B assay; type: cell-based; details: NIH3T3, 96 h
[8] = system: A2780; experiment: Cytotoxicity against human A2780 cells assessed as morphological changes after 48 hrs by acridine orange/propidium iodide staining based fluorescence microscopic method; type: functional, cell-based
[9] = Selectivity index, ratio of EC50 for mouse NIH/3T3 cells to EC50 for human A2780 cells; type: toxicity; details: NIH/3T3 cells and A2780 cells, read-out: Ratio EC50
[10] = system: A2780; experiment: Cell cycle arrest in human A2780 cells assessed as accumulation at sub-G1 phase at 2 uM after 48 hrs by propidium iodide/RNase-staining based flow cytometric analysis; type: functional
[11] = system: A2780; experiment: Cell cycle arrest in human A2780 cells assessed as accumulation at G0/G1 phase at 2 uM after 48 hrs by propidium iodide/RNase-staining based flow cytometric analysis (reference value: 57.5 +/- 4.5%); type: functional
[12] = system: A2780; experiment: Cell cycle arrest in human A2780 cells assessed as accumulation at S phase at 2 uM after 48 hrs by propidium iodide/RNase-staining based flow cytometric analysis (reference value: 29.6 +/- 3.1%); type: functional
[13] = system: A2780; experiment: Cell cycle arrest in human A2780 cells assessed as accumulation at G2/M phase at 2 uM after 48 hrs by propidium iodide/RNase-staining based flow cytometric analysis (reference value: 12.9 +/- 1.4%); type: functional
[14] = system: A2780; experiment: Cell cycle arrest in human A2780 cells assessed as accumulation at sub-G1 phase at 1.2 uM after 48 hrs by propidium iodide/RNase-staining based flow cytometric analysis; type: functional
[15] = system: A2780; experiment: Cell cycle arrest in human A2780 cells assessed as accumulation at G0/G1 phase at 1.2 uM after 48 hrs by propidium iodide/RNase-staining based flow cytometric analysis (reference value: 57.5 +/- 4.5%); type: functional
[16] = system: A2780; experiment: Cell cycle arrest in human A2780 cells assessed as accumulation at S phase at 1.2 uM after 48 hrs by propidium iodide/RNase-staining based flow cytometric analysis (reference value: 29.6 +/- 3.1%); type: functional
[17] = system: A2780; experiment: Cell cycle arrest in human A2780 cells assessed as accumulation at G2/M phase at 1.2 uM after 48 hrs by propidium iodide/RNase-staining based flow cytometric analysis (reference value: 12.9 +/- 1.4%); type: functional
[18] = system: A2780; experiment: Induction of apoptosis in human A2780 cells assessed as vital cells at 2 uM after 48 hrs by Annexin V-FITC/propidium iodide staining-based flow cytometric analysis (reference value: 78.4 +/- 2.1%); type: functional
[19] = system: A2780; experiment: Induction of apoptosis in human A2780 cells assessed as apoptotic cells at 2 uM after 48 hrs by Annexin V-FITC/propidium iodide staining-based flow cytometric analysis (reference value: 2.8 +/- 2.1%); type: functional
[20] = system: A2780; experiment: Induction of apoptosis in human A2780 cells assessed as secondary necrotic cells at 2 uM after 48 hrs by Annexin V-FITC/propidium iodide staining-based flow cytometric analysis (reference value: 8.2 +/- 0.7%); type: functional
[21] = system: A2780; experiment: Induction of apoptosis in human A2780 cells assessed as necrotic cells at 2 uM after 48 hrs by Annexin V-FITC/propidium iodide staining-based flow cytometric analysis (reference value: 10.6 +/- 1.2%); type: functional
[22] = system: A2780; experiment: Induction of apoptosis in human A2780 cells assessed as vital cells at 1.2 uM after 48 hrs by Annexin V-FITC/propidium iodide staining-based flow cytometric analysis (reference value: 78.4 +/- 2.1%); type: functional
[23] = system: A2780; experiment: Induction of apoptosis in human A2780 cells assessed as apoptotic cells at 1.2 uM after 48 hrs by Annexin V-FITC/propidium iodide staining-based flow cytometric analysis (reference value: 2.8 +/- 2.1%); type: functional
[24] = system: A2780; experiment: Induction of apoptosis in human A2780 cells assessed as secondary necrotic cells at 1.2 uM after 48 hrs by Annexin V-FITC/propidium iodide staining-based flow cytometric analysis (reference value: 8.2 +/- 0.7%); type: functional
[25] = system: A2780; experiment: Induction of apoptosis in human A2780 cells assessed as necrotic cells at 1.2 uM after 48 hrs by Annexin V-FITC/propidium iodide staining-based flow cytometric analysis (reference value: 10.6 +/- 1.2%); type: functional

## CC(=O)O[C@@H]1C[C@]2(C)[C@H]3CC=C4[C@@H]5CC(C)(C)CC[C@]5(C(=O)N(CC(=O)NCc5ccccc5)Cc5ccccc5)CC[C@@]4(C)[C@]3(C)CC[C@H]2C(C)(C)[C@H]1OC(C)=O
[1]
  EC50: 2100 nM
[2]
  EC50: 2100 nM
[3]
  EC50: 1200 nM
[4]
  EC50: 300 nM
[5]
  EC50: 2200 nM
[6]
  EC50: 2100 nM
[7]
  EC50: 21.9 µM
[8]
  Activity: Dose-dependent effect
[9]
  selectivity ratio: 73
[10]
  Activity: 4.6%
[11]
  Activity: 60.3%
[12]
  Activity: 30.7%
[13]
  Activity: 5.1%
[14]
  Activity: 6.8%
[15]
  Activity: 57.1%
[16]
  Activity: 28.7%
[17]
  Activity: 7.6%
[18]
  Activity: 55.1%
[19]
  Activity: 8.4%
[20]
  Activity: 19.8%
[21]
  Activity: 16.7%
[22]
  Activity: 72.7%
[23]
  Activity: 4.2%
[24]
  Activity: 11.5%
[25]
  Activity: 11.6%
